Series [1] has as its target Programmed cell death 1 ligand 1 (Homo sapiens, UniProt Q9NZQ7). Kind of series: Inhibition of exosomal PD-L1 (unknown origin) generation preincubated with compound for 24 hrs followed by strep-d2 acceptor bead addition and measured after 30 mins by HTRF assay. For orientation: TR-FRET usually uses a lanthanide donor and a delayed reading to cut background.
Series [2] is described as follows: Tmax in Sprague-Dawley rat at 25 mg/kg, po measured upto 24 hrs by LC-MS/MS analysis. Format: ADME, organism-based. Conditions: in vivo.
Series [3] can be described thus: Toxicity in female mouse xenografted with mouse MFC cells transfected with OVA assessed as spleen damage at 25 mg/kg, po by H and E staining based analysis. Format: organism-based. Conditions: in vivo.
The subject of another series is PDC-GC-919. As to the kind of experiment: Sensitization of human poor differentiated gastric cancer PDC-GC-919 cells to CD8-positive T cell assessed as increase in activated T cells measured for 48 hrs by MTS assay. Format: functional, cell-based. A general note: Tetrazolium dyes change colour on reduction, which living cells bring about.
Series [4] relates to MGC-803. As to the kind of experiment: Sensitization of human MGC-803 cells to CD8-positive T cell assessed as increase in activated T cells at 400 nM measured for 48 hrs in presence of recombinant PD-1 by MTS assay. Format: functional, cell-based.
The nature of series [5]: Toxicity in female mouse xenografted with mouse MFC cells transfected with OVA assessed as lung damage at 25 mg/kg, po by H and E staining based analysis. Format: organism-based. Particulars: in vivo.
Series [6] has as its system MFC. As to the kind of experiment: Antitumor activity against mouse MFC cells transfected with OVA implanted in female mouse assessed as decrease in accumulation of exosomal PD-L1 in tumor at 25 mg/kg, po. Format: functional, organism-based.
Series [7] can be described thus: Toxicity in female mouse xenografted with mouse MFC cells transfected with OVA assessed as liver damage at 25 mg/kg, po by H and E staining based analysis. It counts as organism-based. Particulars: in vivo.
A short description of series [8]: AUC (0 to infinity) in Sprague-Dawley rat at 25 mg/kg, po measured upto 24 hrs by LC-MS/MS analysis. Conditions: in vivo. Format: ADME, organism-based.
Series [9] concerns MFC. Kind of series: Antiproliferative activity against mouse MFC cells transfected with OVA assessed as inhibition of cell proliferation measured for 48 hrs in presence of anti-mouse PD-1 antibody by MTS assay. It counts as functional, cell-based.
Series [10] has as its system MFC. Kind of series: Antitumor activity against mouse MFC cells implanted in female mouse assessed as reduction in tumor weight at 25 mg/kg, po in presence of anti-mouse PD-1. Format: functional, organism-based.
Series [11] relates to MFC. Kind of series: Antitumor activity against mouse MFC cells transfected with OVA implanted in female mouse assessed as increase in TNF-alpha level in tumor at 25 mg/kg, po in presence of PD-1 antibody by ELISA analysis. It counts as functional, organism-based.
The nature of series [12]: Toxicity in female mouse xenografted with mouse MFC cells transfected with OVA assessed as heart damage at 25 mg/kg, po by H and E staining based analysis. Format: organism-based. Conditions: in vivo.
A short description of series [13]: Cmax in Sprague-Dawley rat at 25 mg/kg, po measured upto 24 hrs by LC-MS/MS analysis. It counts as ADME, organism-based. Conditions: in vivo.
Series [14] relates to MFC. As to the kind of experiment: Antitumor activity against mouse MFC cells transfected with OVA implanted in female mouse assessed as decrease in accumulation of exosomal PD-L1 in tumor at 25 mg/kg, po in presence of anti-PD-1 antibody. It counts as functional, organism-based.
The test system of series [15] is MGC-803. As to the kind of experiment: Effect on exosomes generation in human MGC-803 cells at 400 nM measured for 24 hrs. It counts as functional, cell-based.
Series [16] deals with MGC-803. As to the kind of experiment: Sensitization of human MGC-803 cells to CD8-positive T cell assessed as increase in activated T cells measured for 48 hrs in presence of Nivolumab by MTS assay. It counts as functional, cell-based.
Series [17] deals with MGC-803. As to the kind of experiment: Sensitization of human MGC-803 cells to CD8-positive T cell assessed as increase in TNF-alpha level by ELISA analysis. It counts as functional, cell-based. Conditions: dose <= 400.0 nM.
A further series has as its system PDC-GC-239. As to the kind of experiment: Sensitization of human poor differentiated gastric cancer PDC-GC-239 cells to CD8-positive T cell assessed as increase in activated T cells measured for 48 hrs by MTS assay. It counts as functional, cell-based.
A short description of series [18]: Toxicity in female mouse xenografted with mouse MFC cells transfected with OVA assessed as kidney damage at 25 mg/kg, po by H and E staining based analysis. Conditions: in vivo. It counts as organism-based.
The test system of series [19] is MGC-803. As to the kind of experiment: Inhibition of exosomal PD-L1 expression in human MGC-803 cells incubated for 24 hrs by Western blot analysis. Conditions: dose <= 400.0 nM. It counts as functional, cell-based. On the technique in general: Immunoblotting shows a protein as a band on a membrane.
A short description of series [20]: Toxicity in female mouse assessed as effect on body weight at 25 mg/kg, po in presence of anti-mouse PD-1 antibody. It counts as organism-based. Particulars: in vivo.
Series [21] can be described thus: Half life in Sprague-Dawley rat at 25 mg/kg, po measured upto 24 hrs by LC-MS/MS analysis. Format: ADME, organism-based. Conditions: in vivo.
The nature of series [22]: Clearance in Sprague-Dawley rat at 25 mg/kg, po measured upto 24 hrs by LC-MS/MS analysis. It counts as ADME, organism-based. Conditions: in vivo.
Series [23] relates to MFC. As to the kind of experiment: Antitumor activity against mouse MFC cells implanted in female mouse assessed as tumor growth inhibition at 25 mg/kg, po. Particulars: read-out: TGI.
Series [24] relates to MFC. Kind of series: Antitumor activity against mouse MFC cells implanted in female mouse assessed as tumor growth inhibition at 25 mg/kg, po in presence of anti-mouse PD-1. Particulars: read-out: TGI.
Series [25] relates to MGC-803. As to the kind of experiment: Sensitization of human MGC-803 cells to CD8-positive T cell assessed as increase in IL-2 level by ELISA analysis. It counts as functional, cell-based. Particulars: dose <= 400.0 nM.
Series [26] deals with MFC. As to the kind of experiment: Antitumor activity against mouse MFC cells transfected with OVA implanted in female mouse assessed as increase in IFN-gamma level in tumor at 25 mg/kg, po in presence of PD-1 antibody by ELISA analysis. Format: functional, organism-based.
A further series concerns T-cell. As to the kind of experiment: Cytotoxicity against mouse T cell at 100 uM measured for 24 hrs by MTS assay. It counts as toxicity, cell-based.
The subject of series [27] is MGC-803. Kind of series: Sensitization of human MGC-803 cells to CD8-positive T cell assessed as increase in IFN-gamma level by ELISA analysis. Format: functional, cell-based. Conditions: dose <= 400.0 nM.
Series [28] relates to MFC. As to the kind of experiment: Antitumor activity against mouse MFC cells transfected with OVA implanted in female mouse assessed as increase in IL-2 level in tumor at 25 mg/kg, po in presence of PD-1 antibody by ELISA analysis. It counts as functional, organism-based.

Molecules are shown by their SMILES. Activity calls are given as the source filed them.

Sequence of Programmed cell death 1 ligand 1 (Q9NZQ7 whole entry): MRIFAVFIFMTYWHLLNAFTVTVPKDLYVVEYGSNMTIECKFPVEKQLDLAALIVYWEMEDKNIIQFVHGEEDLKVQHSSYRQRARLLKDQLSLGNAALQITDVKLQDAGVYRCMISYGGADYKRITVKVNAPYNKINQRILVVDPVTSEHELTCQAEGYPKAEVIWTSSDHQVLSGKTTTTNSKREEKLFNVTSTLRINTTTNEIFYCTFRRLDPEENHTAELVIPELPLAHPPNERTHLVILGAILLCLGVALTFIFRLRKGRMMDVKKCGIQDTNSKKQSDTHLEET

With `CC(C)(C)OC(=O)Nc1ccc(-c2ccc(C(=O)NCCN3CCOCC3)cc2)cc1`, the IC50 in [1] was 681 nM.

Consider `O=C(NCCN1CCOCC1)c1ccc(Cl)cc1` [MOCLOBEMIDE], for which the IC50 in [1] worked out at 3860 nM.

As to `O=C(NCCN1CCOCC1)c1ccc(-c2ccc(F)cc2)cc1`, the IC50 in series [1] worked out at 2240 nM.

Turning to `COc1ccc(-c2ccc(C(=O)NCCN3CCOCC3)cc2)cn1`, the IC50 in series [1] is 669 nM.

With `Cn1nccc1-c1ccc(C(=O)NCCN2CCOCC2)cc1`, in series [1], the IC50 is 286 nM.

As to `O=C(NCCN1CCOCC1)c1ccc(-c2ccccc2)cc1`, the IC50 in series [1] was 1540 nM.

For `O=C(NCCN1CCOCC1)c1ccc(-c2ccc3cc4ccccc4cc3c2)cc1`, the IC50 in series [1] was greater than 10000 nM.

Regarding `O=C(NCCN1CCOCC1)c1ccc(-c2cnc3[nH]ccc3c2)cc1`, in series [2], the Tmax is 0.25 h. In addition, the Activity entry is “Non-Toxic” in series [3]; “Non-Toxic” in series [5]; “Non-Toxic” in series [7]; “Non-Toxic” in series [12]; “Dose-Dependent Effect” with MGC-803 [17]; “Non-Toxic” in series [18]. The Activity entry in series [20] was “Non-Toxic”; with MGC-803 [25], “Dose-Dependent Effect”; in the series with T-cell it was “Non-Toxic”; in the series on MGC-803 [27] it was “Dose-Dependent Effect”. In series [1], the IC50 is 108 nM. For the same molecule, the result with PDC-GC-919, with MGC-803 [4], with MFC [6], in the series with MFC [9], in the series on MFC [10] and in the series on MFC [11] was Active. Moreover, the outcome in the series with MFC [14], in the series with MGC-803 [15], with MGC-803 [16], in the series with PDC-GC-239, in the series on MFC [26] and in the series with MFC [28] was Active. In series [8], this molecule gave an AUC of 1668.51 ng·h/mL. Also, the Cmax in series [13] is 1210 ng/mL. Further, the inhibition entry with MGC-803 [19] is “Dose-Dependent Effect”. In series [21], the half-life is 2.73 h. Besides, the CL in [22] amounted to 587.3 mL/min/kg. Besides, the inhibition in vivo at 25 mg/kg was determined as 32% with MFC [23] and 69% with MFC [24].

Turning to `N#Cc1ccc(-c2ccc(C(=O)NCCN3CCOCC3)cc2)cc1`, the IC50 in [1] was 498 nM.

Regarding `Nc1ccc(-c2ccc(C(=O)NCCN3CCOCC3)cc2)cc1`, the IC50 in series [1] came to 336 nM.

`O=C(NCCN1CCOCC1)c1ccc(-c2cc3ccccc3s2)cc1`: the IC50 in series [1] came out at 648 nM.

Regarding `COc1ccc(-c2ccc(C(=O)NCCN3CCOCC3)cc2)cc1F`, the IC50 in series [1] came out at 623 nM.

For the molecule `CCOC(C)n1cc(-c2ccc(C(=O)NCCN3CCOCC3)cc2)cn1` (centres undefined), in series [1], the IC50 stood at 753 nM.

Turning to `O=C(NCCN1CCOCC1)c1ccc(-c2ccc(C(F)(F)F)cc2)cc1`, the IC50 in series [1] came out at 6820 nM.

As to `O=C(NCCN1CCOCC1)c1ccc(-c2ccn(C3CCCCO3)n2)cc1` (centres undefined), the IC50 in [1] stood at 2590 nM.

`O=C(NCCN1CCOCC1)c1ccc(-c2cncnc2)cc1`: the IC50 in [1] stood at 571 nM.

In the case of `O=C(NCCN1CCOCC1)c1ccc(-c2ccc3c(c2)OCCO3)cc1`, the IC50 in series [1] stood at 153 nM.

Regarding `COc1ncc(-c2ccc(C(=O)NCCN3CCOCC3)cc2)cn1`, the IC50 in [1] was 461 nM.

Turning to `Cn1ccc2cc(-c3ccc(C(=O)NCCN4CCOCC4)cc3)ccc21`, in [1], the IC50 worked out at 217 nM.

Usually IC50 stands for the point on the concentration scale where inhibition reaches its midpoint. The Tmax is the time from dosing to the highest level. By AUC is commonly meant the area under the concentration-time curve, a measure of exposure. As a reminder, the Cmax is the peak of the concentration-time curve. A word on the half-life: it is the time needed for the level to fall by half in the phase considered. The low end stands for fast loss, the high end for slow loss.
